The source made the active and inactive calls.
How the values were obtained:
[1] = Fluorescence-based biochemical high throughput screening dose response assay to identify inhibitors of Crimean-Congo Hemorrhagic Fever (CCHF) viral ovarian tumor domain protease (vOTU): Pep-AMC substrate.
[2] = alpha-synuclein stem-loop luciferase translation blockers – H4 neuroglioma cells, luminescence, confirmation (AID 1988); assay type: functional, cell-based
Genome polyprotein = Genome polyprotein (dengue virus type 2, UniProt P29990); assay: flavivirus cap methylation enzyme inhibition – biochemical, confirmation dose response, primary screen (AID 588689); assay type: functional
Vero = assay: viability of Vero cells under compound – cytotoxicity control for flavivirus capping enzyme inhibitors (AID 588742); assay type: functional; details: Chlorocebus sabaeus
Protein RecA = biological target: T1, Protein RecA (Mycobacterium tuberculosis, UniProt P9WHJ3); assay: Fluorescence Cell-Free Homogeneous Dose Retest to Identify Inhibitors of RecA-Intein Splicing Activity. [Related pubchem assays (depositor defined):AID2097, AID2223, AID489010, AID492950]; assay type: functional
T1 sequence (P9WHJ3 whole entry): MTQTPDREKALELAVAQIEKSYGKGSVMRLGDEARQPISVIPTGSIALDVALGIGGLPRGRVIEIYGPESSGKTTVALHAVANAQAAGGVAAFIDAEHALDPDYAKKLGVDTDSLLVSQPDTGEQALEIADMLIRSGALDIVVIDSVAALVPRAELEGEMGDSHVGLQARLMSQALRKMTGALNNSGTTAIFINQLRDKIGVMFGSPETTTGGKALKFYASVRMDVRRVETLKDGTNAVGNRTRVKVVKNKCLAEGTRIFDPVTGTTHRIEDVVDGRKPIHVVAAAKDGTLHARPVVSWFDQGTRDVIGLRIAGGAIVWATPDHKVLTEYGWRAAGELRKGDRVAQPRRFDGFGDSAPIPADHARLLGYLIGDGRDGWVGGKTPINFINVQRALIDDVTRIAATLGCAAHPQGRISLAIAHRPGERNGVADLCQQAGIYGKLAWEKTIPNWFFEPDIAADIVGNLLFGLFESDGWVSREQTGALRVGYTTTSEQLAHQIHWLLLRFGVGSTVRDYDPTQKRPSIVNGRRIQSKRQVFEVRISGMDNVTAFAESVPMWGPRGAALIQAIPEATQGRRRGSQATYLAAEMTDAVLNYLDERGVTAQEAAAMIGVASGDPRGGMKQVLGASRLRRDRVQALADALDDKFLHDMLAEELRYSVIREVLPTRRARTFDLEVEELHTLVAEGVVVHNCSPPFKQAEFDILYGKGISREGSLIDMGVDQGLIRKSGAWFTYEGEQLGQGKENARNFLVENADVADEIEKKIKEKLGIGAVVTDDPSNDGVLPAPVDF

[3] = biological target: Calcium/calmodulin-dependent protein kinase type 1 (Homo sapiens, UniProt Q14012); assay type: functional
Calcium/calmodulin-dependent protein kinase type 1, sequence (Q14012 whole entry): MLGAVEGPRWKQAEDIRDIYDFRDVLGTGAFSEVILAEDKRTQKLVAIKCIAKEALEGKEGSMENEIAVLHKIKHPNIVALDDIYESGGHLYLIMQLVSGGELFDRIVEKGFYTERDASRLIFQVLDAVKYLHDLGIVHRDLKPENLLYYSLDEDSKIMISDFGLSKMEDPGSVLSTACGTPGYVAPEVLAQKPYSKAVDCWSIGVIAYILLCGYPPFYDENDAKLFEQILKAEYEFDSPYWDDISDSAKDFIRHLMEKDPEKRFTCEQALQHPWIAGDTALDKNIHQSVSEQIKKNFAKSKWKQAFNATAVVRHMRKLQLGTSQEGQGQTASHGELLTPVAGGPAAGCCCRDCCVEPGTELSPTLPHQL

[4] = biological target: Mitogen-activated protein kinase 8 (Homo sapiens, UniProt P45983); assay type: functional;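 note: value comes from one member of a kinome-wide kinase profiling panel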
Mitogen-activated protein kinase 8, sequence (P45983 whole entry): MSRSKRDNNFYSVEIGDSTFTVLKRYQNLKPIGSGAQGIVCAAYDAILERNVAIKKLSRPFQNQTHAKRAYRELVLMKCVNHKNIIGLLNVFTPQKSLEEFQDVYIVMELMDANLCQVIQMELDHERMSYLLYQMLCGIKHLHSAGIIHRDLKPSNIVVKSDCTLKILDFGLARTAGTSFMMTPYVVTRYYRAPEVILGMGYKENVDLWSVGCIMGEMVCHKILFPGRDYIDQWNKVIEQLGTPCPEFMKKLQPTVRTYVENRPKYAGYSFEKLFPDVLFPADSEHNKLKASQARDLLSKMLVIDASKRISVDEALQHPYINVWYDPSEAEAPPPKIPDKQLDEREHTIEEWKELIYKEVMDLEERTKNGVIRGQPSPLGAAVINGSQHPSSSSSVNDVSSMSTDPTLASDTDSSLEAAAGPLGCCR

[5] = biological target: Fibroblast growth factor receptor 3 (Homo sapiens, UniProt P22607); assay type: functional
[6] = biological target: Vascular endothelial growth factor receptor 1 (Homo sapiens, UniProt P17948); assay type: functional;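 note: measured within a kinome-wide profiling panel, FLT1 as the panel member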
[7] = biological target: Fibroblast growth factor receptor 1 (Homo sapiens, UniProt P11362); assay type: functional
[8] = biological target: Cyclin-dependent kinase 7 (Homo sapiens, UniProt P50613); assay type: functional;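 note: value comes from a kinome-wide kinase profiling panel in which CDK7 is one member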
[9] = biological target: Dual specificity tyrosine-phosphorylation-regulated kinase 3 (Homo sapiens, UniProt O43781); assay type: functional;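 note: measured as one member of a broad kinase panel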
Dual specificity tyrosine-phosphorylation-regulated kinase 3, sequence (O43781 whole entry): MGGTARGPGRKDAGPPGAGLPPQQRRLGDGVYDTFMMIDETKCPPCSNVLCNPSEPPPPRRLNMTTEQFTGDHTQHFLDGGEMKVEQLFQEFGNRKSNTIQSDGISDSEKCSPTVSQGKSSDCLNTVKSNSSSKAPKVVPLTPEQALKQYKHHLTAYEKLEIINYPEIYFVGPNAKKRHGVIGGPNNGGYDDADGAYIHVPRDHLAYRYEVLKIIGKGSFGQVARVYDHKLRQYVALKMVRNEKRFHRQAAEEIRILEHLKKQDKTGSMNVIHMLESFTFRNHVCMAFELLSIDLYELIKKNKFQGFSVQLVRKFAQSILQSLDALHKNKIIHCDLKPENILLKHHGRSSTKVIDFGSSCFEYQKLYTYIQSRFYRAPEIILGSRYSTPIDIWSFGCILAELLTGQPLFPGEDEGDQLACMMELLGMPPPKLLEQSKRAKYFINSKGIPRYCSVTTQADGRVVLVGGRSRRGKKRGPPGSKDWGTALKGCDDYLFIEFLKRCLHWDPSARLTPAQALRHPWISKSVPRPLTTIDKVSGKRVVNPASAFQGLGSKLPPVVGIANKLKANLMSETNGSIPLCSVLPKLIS

[10] = biological target: Calcium/calmodulin-dependent protein kinase type II subunit alpha (Homo sapiens, UniProt Q9UQM7); assay: Navigating the Kinome. Panel member name: CAMK2A; assay type: functional
Calcium/calmodulin-dependent protein kinase type II subunit alpha, sequence (Q9UQM7 whole entry): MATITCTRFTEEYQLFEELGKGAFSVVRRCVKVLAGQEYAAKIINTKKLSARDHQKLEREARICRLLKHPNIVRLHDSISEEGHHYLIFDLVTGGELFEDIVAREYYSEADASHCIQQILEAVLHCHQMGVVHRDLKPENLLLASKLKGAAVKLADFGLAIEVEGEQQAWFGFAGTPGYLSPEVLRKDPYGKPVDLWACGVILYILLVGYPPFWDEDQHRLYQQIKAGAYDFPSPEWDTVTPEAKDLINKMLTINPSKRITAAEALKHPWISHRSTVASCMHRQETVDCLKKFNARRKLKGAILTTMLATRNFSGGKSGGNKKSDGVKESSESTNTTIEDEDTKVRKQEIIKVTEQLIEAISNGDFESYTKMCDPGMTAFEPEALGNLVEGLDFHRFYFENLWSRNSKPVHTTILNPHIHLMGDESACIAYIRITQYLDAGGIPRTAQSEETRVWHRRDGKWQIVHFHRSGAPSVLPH

[11] = biological target: Mast/stem cell growth factor receptor Kit (Homo sapiens, UniProt P10721); assay type: functional;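 note: KIT entry within a kinase panel assay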
[12] = biological target: Vascular endothelial growth factor receptor 2 (Homo sapiens, UniProt P35968); assay type: functional
[13] = biological target: Hepatocyte growth factor receptor (Homo sapiens, UniProt P08581); assay type: functional;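 note: kinase panel profiling across the kinome, with MET as the panel member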
[14] = biological target: Phosphorylase b kinase gamma catalytic chain, liver/testis isoform (Homo sapiens, UniProt P15735); assay type: functional;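 note: PHKG2 measured as one member of a kinome-wide kinase panel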
Phosphorylase b kinase gamma catalytic chain, liver/testis isoform, sequence (P15735 whole entry, canonical isoform): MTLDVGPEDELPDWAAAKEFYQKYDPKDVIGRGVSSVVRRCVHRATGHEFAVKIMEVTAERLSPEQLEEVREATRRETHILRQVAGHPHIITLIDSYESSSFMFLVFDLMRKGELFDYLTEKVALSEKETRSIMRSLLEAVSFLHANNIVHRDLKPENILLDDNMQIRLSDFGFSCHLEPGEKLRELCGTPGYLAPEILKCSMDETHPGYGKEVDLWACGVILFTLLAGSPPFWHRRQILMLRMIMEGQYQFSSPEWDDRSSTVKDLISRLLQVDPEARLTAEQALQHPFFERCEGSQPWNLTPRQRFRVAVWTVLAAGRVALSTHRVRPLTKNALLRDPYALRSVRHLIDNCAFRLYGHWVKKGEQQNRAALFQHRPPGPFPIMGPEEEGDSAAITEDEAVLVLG

Insulin receptor = Insulin receptor (Homo sapiens, UniProt P06213); assay type: functional;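 note: insulin receptor kinase tested as one member of a kinome-wide kinase panel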
[15] = biological target: Tyrosine-protein kinase ABL1 (Homo sapiens, UniProt P00519); assay type: functional
[16] = biological target: Lymphokine-activated killer T-cell-originated protein kinase (Homo sapiens, UniProt Q96KB5); assay type: functional;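 note: value comes from a kinase panel screen in which TOPK was one of the panel members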
[17] = biological target: 3-phosphoinositide-dependent protein kinase 1 (Homo sapiens, UniProt O15530); assay type: functional;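 note: value comes from the Navigating the Kinome panel, PDPK1 member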
3-phosphoinositide-dependent protein kinase 1, sequence (O15530 whole entry): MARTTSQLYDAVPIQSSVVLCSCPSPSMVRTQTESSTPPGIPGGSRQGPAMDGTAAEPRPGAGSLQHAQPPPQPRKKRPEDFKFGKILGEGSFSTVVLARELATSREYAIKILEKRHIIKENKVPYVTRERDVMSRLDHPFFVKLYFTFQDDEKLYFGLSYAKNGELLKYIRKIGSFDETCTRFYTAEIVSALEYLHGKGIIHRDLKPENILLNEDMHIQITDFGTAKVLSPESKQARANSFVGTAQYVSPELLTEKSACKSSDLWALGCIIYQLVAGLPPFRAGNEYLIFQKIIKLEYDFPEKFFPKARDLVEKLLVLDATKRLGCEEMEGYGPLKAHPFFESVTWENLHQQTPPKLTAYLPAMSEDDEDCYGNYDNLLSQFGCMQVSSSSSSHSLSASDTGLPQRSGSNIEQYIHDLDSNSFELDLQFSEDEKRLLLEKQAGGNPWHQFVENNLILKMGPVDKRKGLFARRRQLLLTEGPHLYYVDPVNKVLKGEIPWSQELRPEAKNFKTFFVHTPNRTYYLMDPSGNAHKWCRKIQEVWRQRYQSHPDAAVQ

[18] = biological target: Tyrosine-protein kinase Fer (Homo sapiens, UniProt P16591); assay type: functional;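 note: FER tested as one member of a kinome panel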
[19] = biological target: Ribosomal protein S6 kinase beta-1 (Homo sapiens, UniProt P23443); assay type: functional;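 note: measured as one member of a kinome-wide profiling panel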
[20] = biological target: Serine/threonine-protein kinase Chk2 (Homo sapiens, UniProt O96017); assay type: functional;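 note: CHEK2 entry within a kinome-wide screening panel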
[21] = biological target: MAP kinase-activated protein kinase 3 (Homo sapiens, UniProt Q16644); assay type: functional;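 note: value comes from a kinome-wide profiling panel in which MAPKAPK3 is one of the panel members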
[22] = biological target: Serine/threonine-protein kinase D3 (Homo sapiens, UniProt O94806); assay type: functional;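 note: determined within a kinase panel screen, with PRKCN as the panel member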
[23] = biological target: Tyrosine-protein kinase SYK (Homo sapiens, UniProt P43405); assay type: functional
[24] = biological target: Macrophage colony-stimulating factor 1 receptor (Homo sapiens, UniProt P07333); assay type: functional;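 note: value comes from the Navigating the Kinome screening panel, CSF1R member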
Macrophage colony-stimulating factor 1 receptor, sequence (P07333 whole entry): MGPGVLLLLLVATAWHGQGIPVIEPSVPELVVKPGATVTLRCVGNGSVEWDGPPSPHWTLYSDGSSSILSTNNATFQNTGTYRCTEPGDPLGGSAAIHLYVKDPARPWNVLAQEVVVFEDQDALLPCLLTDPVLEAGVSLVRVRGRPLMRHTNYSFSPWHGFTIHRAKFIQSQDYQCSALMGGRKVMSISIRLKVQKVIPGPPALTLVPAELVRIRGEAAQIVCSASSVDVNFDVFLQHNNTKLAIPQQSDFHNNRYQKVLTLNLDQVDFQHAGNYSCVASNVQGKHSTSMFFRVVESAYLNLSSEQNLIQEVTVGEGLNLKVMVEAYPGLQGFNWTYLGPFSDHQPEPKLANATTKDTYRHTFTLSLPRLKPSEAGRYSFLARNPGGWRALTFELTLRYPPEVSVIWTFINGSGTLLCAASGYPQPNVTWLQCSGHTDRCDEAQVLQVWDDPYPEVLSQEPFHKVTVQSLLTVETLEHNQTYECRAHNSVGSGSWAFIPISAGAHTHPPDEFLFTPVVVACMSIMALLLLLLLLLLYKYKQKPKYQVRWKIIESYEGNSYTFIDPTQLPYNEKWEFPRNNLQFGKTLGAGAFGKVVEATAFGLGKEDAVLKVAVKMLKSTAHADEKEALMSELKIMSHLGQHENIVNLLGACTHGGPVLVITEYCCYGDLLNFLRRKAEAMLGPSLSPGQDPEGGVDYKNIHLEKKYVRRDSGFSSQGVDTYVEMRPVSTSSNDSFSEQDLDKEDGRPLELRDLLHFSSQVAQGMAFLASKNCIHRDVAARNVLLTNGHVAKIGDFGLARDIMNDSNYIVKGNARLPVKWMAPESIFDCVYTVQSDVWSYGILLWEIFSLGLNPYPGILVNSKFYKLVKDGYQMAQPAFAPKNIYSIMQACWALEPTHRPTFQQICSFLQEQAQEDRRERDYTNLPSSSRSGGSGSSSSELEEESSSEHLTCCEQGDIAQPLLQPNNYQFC

[25] = biological target: Testis-specific serine/threonine-protein kinase 1 (Homo sapiens, UniProt Q9BXA7); assay type: functional
[26] = biological target: Interleukin-1 receptor-associated kinase 1 (Homo sapiens, UniProt P51617); assay type: functional;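 note: IRAK1 tested as one member of a kinome panel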
[27] = biological target: Tyrosine-protein kinase JAK2 (Homo sapiens, UniProt O60674); assay type: functional;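 note: JAK2 tested as one member of a kinase panel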
Tyrosine-protein kinase JAK2, sequence (O60674 whole entry): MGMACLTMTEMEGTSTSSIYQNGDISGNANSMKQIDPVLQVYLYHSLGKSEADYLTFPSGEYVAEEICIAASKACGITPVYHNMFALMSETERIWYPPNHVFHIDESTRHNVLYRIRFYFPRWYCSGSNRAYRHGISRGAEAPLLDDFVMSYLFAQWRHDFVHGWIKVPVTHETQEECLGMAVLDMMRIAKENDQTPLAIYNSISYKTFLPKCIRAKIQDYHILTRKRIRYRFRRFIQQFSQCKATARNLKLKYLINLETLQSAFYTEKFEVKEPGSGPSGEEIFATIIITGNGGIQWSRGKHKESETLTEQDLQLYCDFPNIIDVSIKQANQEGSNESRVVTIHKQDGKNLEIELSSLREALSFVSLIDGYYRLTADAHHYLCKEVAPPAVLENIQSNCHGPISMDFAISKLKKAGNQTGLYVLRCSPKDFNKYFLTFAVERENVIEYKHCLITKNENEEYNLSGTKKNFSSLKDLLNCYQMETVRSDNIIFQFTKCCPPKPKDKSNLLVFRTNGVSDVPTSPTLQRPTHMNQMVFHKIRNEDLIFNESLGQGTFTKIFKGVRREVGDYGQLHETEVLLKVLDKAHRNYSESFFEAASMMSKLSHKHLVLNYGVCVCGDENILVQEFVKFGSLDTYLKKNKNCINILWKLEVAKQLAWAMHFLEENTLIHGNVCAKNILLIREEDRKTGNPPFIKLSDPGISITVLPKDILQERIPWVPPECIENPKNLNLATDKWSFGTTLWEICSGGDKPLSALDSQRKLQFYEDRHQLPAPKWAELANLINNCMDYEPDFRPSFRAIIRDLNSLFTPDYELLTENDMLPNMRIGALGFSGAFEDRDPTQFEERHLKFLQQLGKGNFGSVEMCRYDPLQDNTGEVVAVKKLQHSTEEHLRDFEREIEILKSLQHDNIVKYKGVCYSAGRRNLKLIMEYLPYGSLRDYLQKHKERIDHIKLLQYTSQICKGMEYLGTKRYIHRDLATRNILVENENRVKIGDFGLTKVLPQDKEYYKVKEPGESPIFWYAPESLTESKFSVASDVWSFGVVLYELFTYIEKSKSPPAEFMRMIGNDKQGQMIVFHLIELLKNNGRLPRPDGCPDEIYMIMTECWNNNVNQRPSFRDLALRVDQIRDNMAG

[28] = biological target: Testis-specific serine/threonine-protein kinase 2 (Homo sapiens, UniProt Q96PF2); assay type: functional;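 note: part of the Navigating the Kinome panel, target entry STK22B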
[29] = biological target: MAP kinase-interacting serine/threonine-protein kinase 2 (Homo sapiens, UniProt Q9HBH9); assay type: functional
HEK293 = assay: EBV LMP1 TES2 canonical NF-kB signalling blockers – cell-based, HEK293, luciferase, cherry-pick, dose response (AID 588343); assay type: functional; details: Homo sapiens
[30] = Trypanosoma cruzi growth suppression in host cells – NIH3T3 host cells, beta-gal luminescence, confirmation (AID 2044); assay type: functional, cell-based;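 note: intracellular parasites grown in NIH/3T3 mouse fibroblasts as host cells; luminescent beta-galactosidase reporter signal from transgenic T. cruzi replicating inside host cells; inhibitors lower the luminescence signal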

CC(C)N(C(=O)Nc1ccc2nsnc2c1)C(C)C
IC50 [1]: > 4250 nM (active)

NS(=O)(=O)c1ccc(NC2=CC(=O)C(=O)c3ccccc32)cc1
EC50 [2]: 8450 nM (active)
IC50 (Genome polyprotein): 39000 nM (active)
CC50 (Vero): 11800 nM (active)
EC50 (Protein RecA): 667 nM (active)

Clc1cc(-c2c[nH]c3ncccc23)nc(NC2CCCCC2)n1
Ki [3]: > 6310 nM (inactive)
Ki [4]: > 3160 nM (inactive)
Ki [5]: > 2000 nM (inactive)
Ki [6]: 398 nM (active)
Ki [7]: > 3980 nM (inactive)
Ki [8]: > 6310 nM (inactive)
Ki [9]: 7.94 nM (active)
Ki [10]: 3160 nM (active)
Ki [11]: > 1260 nM (inactive)
Ki [12]: 2510 nM (active)
Ki [13]: > 3160 nM (inactive)
Ki [14]: > 5010 nM (inactive)
Ki (Insulin receptor): 3160 nM (active)
Ki [15]: > 631 nM (inactive)
Ki [16]: > 10000 nM (inactive)
Ki [17]: > 3980 nM (inactive)
Ki [18]: 398 nM (active)
Ki [19]: 2510 nM (active)
Ki [20]: > 1580 nM (inactive)
Ki [21]: > 10000 nM (inactive)
Ki [22]: > 2000 nM (inactive)
Ki [23]: > 1580 nM (inactive)
Ki [24]: > 1580 nM (inactive)
Ki [25]: > 1580 nM (inactive)
Ki [26]: 50.1 nM (active)
Ki [27]: > 2510 nM (inactive)
Ki [28]: > 1580 nM (inactive)
Ki [29]: 79.4 nM (active)

O=C(N/N=C/c1ccc(O)cc1O)c1ccc(CN2C(=O)c3cccc4cccc2c34)cc1
AC50 (HEK293): 6460 nM (active)

CCC(=O)NC(c1ccccc1OC)c1ccc2cccnc2c1O (stereo not given)
EC50 [30]: 951 nM (active)
